{"source": "patent US20250332178A1", "about": "“METHODS OF TREATING MYCOBACTERIAL INFECTIONS USING TETRACYCLINE COMPOUNDS” (priority 2018, published 2025)", "key": {"[1]": {"test_system": "M. abscessus", "settings": "strains of M. abscessus; Wallace et al.; cited from earlier work"}, "[2]": {"test_system": "M. avium", "experiment": "MIC (CLSI broth dilution), slow-growing NTM isolates", "type": "cell-based", "settings": "Mycobacterium avium, read-out: MIC"}, "[3]": {"test_system": "M. arupense", "experiment": "MIC (CLSI broth dilution), slow-growing NTM isolates", "type": "cell-based", "settings": "isolate 11, Other; read-out: MIC"}, "[4]": {"test_system": "M. chimaera", "experiment": "MIC (CLSI broth dilution), slow-growing NTM isolates", "type": "cell-based", "settings": "read-out: MIC"}, "[5]": {"test_system": "M. smegmatis group", "experiment": "MIC (CLSI broth dilution), RGM isolates", "type": "cell-based", "settings": "Mycolicibacterium smegmatis, read-out: MIC"}, "[6]": {"test_system": "M. intracellulare", "experiment": "MIC (CLSI broth dilution), slow-growing NTM isolates", "type": "cell-based", "settings": "Mycobacterium intracellulare, read-out: MIC"}, "[7]": {"test_system": "M. abscessus complex", "experiment": "MIC (CLSI broth dilution), RGM isolates", "type": "cell-based", "settings": "Mycobacteroides abscessus, read-out: MIC"}, "[8]": {"test_system": "M. simiae", "experiment": "MIC (CLSI broth dilution), slow-growing NTM isolates", "type": "cell-based", "settings": "read-out: MIC"}, "[9]": {"test_system": "M. fortuitum group", "experiment": "MIC (CLSI broth dilution), RGM isolates", "type": "cell-based", "settings": "Mycolicibacterium fortuitum, read-out: MIC"}, "[10]": {"test_system": "M. chelonae", "experiment": "MIC (CLSI broth dilution), RGM isolates", "type": "cell-based", "settings": "Mycobacteroides chelonae, read-out: MIC"}, "[11]": {"test_system": "rapid-growing mycobacteria (RGM) isolates", "experiment": "MIC (CLSI broth dilution), all RGM isolates", "type": "cell-based, nontuberculous mycobacteria", "settings": "all 50 RGM isolates"}, "[12]": {"test_system": "M. mucogenium group", "experiment": "MIC (CLSI broth dilution), RGM isolates", "type": "cell-based", "settings": "read-out: MIC"}, "[13]": {"test_system": "slow-growing NTM isolates", "experiment": "MIC (CLSI broth dilution), all slow-growing NTM isolates", "type": "cell-based, nontuberculous mycobacteria", "settings": "all slow-growing NTM isolates"}, "[14]": {"test_system": "M. immunogenum group", "experiment": "MIC (CLSI broth dilution), RGM isolates", "type": "cell-based", "settings": "M. immunogenum, read-out: MIC"}}, "note": "Read-outs that look alike come from different tables or passages of the source."}
{"smiles": "CN(C)[C@@H]1C(=O)C(C(N)=O)=C(O)[C@@]2(O)C(=O)C3=C(O)c4c(O)cccc4[C@@](C)(O)[C@H]3C[C@@H]12", "note": "[tetracycline]", "values": [{"measurement": "in vitro activity (in words)", "setting": "[1]", "value": "very low activity"}]}
{"smiles": "COc1c(N2C[C@@H]3CCCN[C@@H]3C2)c(F)cc2c(=O)c(C(=O)O)cn(C3CC3)c12", "note": "[MXF, moxifloxacin]", "values": [{"measurement": "MIC", "setting": "[2]; isolate 1, MAC", "value": 2, "unit": "µg/mL"}, {"measurement": "MIC", "setting": "[2]; isolate 2, MAC", "value": 0.25, "unit": "µg/mL"}, {"measurement": "MIC", "setting": "[2]; isolate 3, MAC", "value": 4, "unit": "µg/mL"}, {"measurement": "MIC", "setting": "[3]", "value": "> 16", "unit": "µg/mL"}, {"measurement": "MIC", "setting": "[4]; isolate 4, MAC", "value": 4, "unit": "µg/mL"}, {"measurement": "MIC", "setting": "[4]; isolate 5, MAC", "value": 2, "unit": "µg/mL"}, {"measurement": "MIC", "setting": "[5]; isolate 49, M. smegmatis group, M. goodii", "value": "≤ 0.06", "unit": "µg/mL"}, {"measurement": "MIC", "setting": "[5]; isolate 50, M. smegmatis group, M. wolinskyi", "value": 0.25, "unit": "µg/mL"}, {"measurement": "MIC", "setting": "[6]; isolate 6, MAC", "value": 2, "unit": "µg/mL"}, {"measurement": "MIC", "setting": "[6]; isolate 7, MAC", "value": 1, "unit": "µg/mL"}, {"measurement": "MIC", "setting": "[6]; isolate 8, MAC", "value": 2, "unit": "µg/mL"}, {"measurement": "MIC", "setting": "[6]; isolate 9, MAC", "value": 2, "unit": "µg/mL"}, {"measurement": "MIC", "setting": "[6]; isolate 10, MAC", "value": 0.5, "unit": "µg/mL"}, {"measurement": "MIC", "setting": "[7]; isolate 1, M. abscessus complex, erm gene type MAB30", "value": 8, "unit": "µg/mL"}, {"measurement": "MIC", "setting": "[7]; isolate 2, M. abscessus complex, erm gene type MAB30", "value": 8, "unit": "µg/mL"}, {"measurement": "MIC", "setting": "[7]; isolate 3, M. abscessus complex, erm gene type MAB30", "value": 16, "unit": "µg/mL"}, {"measurement": "MIC", "setting": "[7]; isolate 4, M. abscessus complex, erm gene type massiliense", "value": 16, "unit": "µg/mL"}, {"measurement": "MIC", "setting": "[7]; isolate 5, M. abscessus complex, erm gene type massiliense/subsp. abs hybrid", "value": 4, "unit": "µg/mL"}, {"measurement": "MIC", "setting": "[7]; isolate 6, M. abscessus complex, erm gene type Type 1 abscessus", "value": 16, "unit": "µg/mL"}, {"measurement": "MIC", "setting": "[7]; isolate 7, M. abscessus complex, erm gene type Type 1 abscessus", "value": 8, "unit": "µg/mL"}, {"measurement": "MIC", "setting": "[7]; isolate 8, M. abscessus complex, erm gene type Type 1 abscessus", "value": 16, "unit": "µg/mL"}, {"measurement": "MIC", "setting": "[7]; isolate 9, M. abscessus complex, erm gene type Type 1 abscessus", "value": 8, "unit": "µg/mL"}, {"measurement": "MIC", "setting": "[7]; isolate 10, M. abscessus complex, erm gene type Type 1 abscessus", "value": 4, "unit": "µg/mL"}, {"measurement": "MIC", "setting": "[7]; isolate 11, M. abscessus complex, erm gene type Type 6 abscessus", "value": 8, "unit": "µg/mL"}, {"measurement": "MIC", "setting": "[7]; isolate 12, M. abscessus complex, erm gene type Type 6 abscessus", "value": 4, "unit": "µg/mL"}, {"measurement": "MIC", "setting": "[7]; isolate 13, M. abscessus complex, erm gene type Type 6 abscessus", "value": 8, "unit": "µg/mL"}, {"measurement": "MIC", "setting": "[7]; isolate 14, M. abscessus complex, erm gene type Type 6 abscessus", "value": 8, "unit": "µg/mL"}, {"measurement": "MIC", "setting": "[7]; isolate 15, M. abscessus complex, erm gene type Type 7 abscessus", "value": 8, "unit": "µg/mL"}, {"measurement": "MIC", "setting": "[7]; isolate 16, M. abscessus complex, erm gene type Type 7 abscessus", "value": 4, "unit": "µg/mL"}, {"measurement": "MIC", "setting": "[7]; isolate 17, M. abscessus complex, erm gene type Type 8 abscessus", "value": 4, "unit": "µg/mL"}, {"measurement": "MIC", "setting": "[8]; isolate 13, Other", "value": 4, "unit": "µg/mL"}, {"measurement": "MIC", "setting": "[8]; isolate 14, Other", "value": 2, "unit": "µg/mL"}, {"measurement": "MIC", "setting": "[8]; isolate 15, Other", "value": 8, "unit": "µg/mL"}, {"measurement": "MIC", "setting": "[9]; isolate 23, M. fortuitum group, M. fortuitum", "value": "≤ 0.06", "unit": "µg/mL"}, {"measurement": "MIC", "setting": "[9]; isolate 24, M. fortuitum group, M. fortuitum", "value": "≤ 0.06", "unit": "µg/mL"}, {"measurement": "MIC", "setting": "[9]; isolate 25, M. fortuitum group, M. fortuitum", "value": "≤ 0.06", "unit": "µg/mL"}, {"measurement": "MIC", "setting": "[9]; isolate 26, M. fortuitum group, M. porcinum", "value": "≤ 0.06", "unit": "µg/mL"}, {"measurement": "MIC", "setting": "[9]; isolate 27, M. fortuitum group, M. porcinum", "value": 0.12, "unit": "µg/mL"}, {"measurement": "MIC", "setting": "[9]; isolate 28, M. fortuitum group, M. porcinum/M. boenickei", "value": 0.25, "unit": "µg/mL"}, {"measurement": "MIC", "setting": "[9]; isolate 29, M. fortuitum group, M. porcinum/M. boenickei", "value": 0.12, "unit": "µg/mL"}, {"measurement": "MIC", "setting": "[9]; isolate 30, M. fortuitum group, M. porcinum/M. boenickei", "value": "≤ 0.06", "unit": "µg/mL"}, {"measurement": "MIC", "setting": "[9]; isolate 31, M. fortuitum group, M. senegalense", "value": 0.12, "unit": "µg/mL"}, {"measurement": "MIC", "setting": "[9]; isolate 32, M. fortuitum group, M. senegalense", "value": 0.12, "unit": "µg/mL"}, {"measurement": "MIC", "setting": "[9]; isolate 33, M. fortuitum group, M. senegalense", "value": 0.12, "unit": "µg/mL"}, {"measurement": "MIC", "setting": "[9]; isolate 34, M. fortuitum group, M. senegalense", "value": 0.12, "unit": "µg/mL"}, {"measurement": "MIC", "setting": "[10]; isolate 18, M. chelonae", "value": 4, "unit": "µg/mL"}, {"measurement": "MIC", "setting": "[10]; isolate 19, M. chelonae", "value": 8, "unit": "µg/mL"}, {"measurement": "MIC", "setting": "[10]; isolate 20, M. chelonae", "value": 2, "unit": "µg/mL"}, {"measurement": "MIC", "setting": "[10]; isolate 21, M. chelonae", "value": "> 16", "unit": "µg/mL"}, {"measurement": "MIC", "setting": "[10]; isolate 22, M. chelonae", "value": 2, "unit": "µg/mL"}, {"measurement": "MIC50", "setting": "[11]; read-out: MIC50", "value": 2, "unit": "µg/mL"}, {"measurement": "MIC90", "setting": "[11]; read-out: MIC90", "value": 16, "unit": "µg/mL"}, {"measurement": "MIC", "setting": "[12]; isolate 39, M. mucogenicum group, M. mucogenicum", "value": 0.12, "unit": "µg/mL"}, {"measurement": "MIC", "setting": "[12]; isolate 40, M. mucogenicum group, M. mucogenicum", "value": 0.25, "unit": "µg/mL"}, {"measurement": "MIC", "setting": "[12]; isolate 41, M. mucogenicum group, M. mucogenicum", "value": 0.25, "unit": "µg/mL"}, {"measurement": "MIC", "setting": "[12]; isolate 42, M. mucogenicum group, M. mucogenicum", "value": 0.5, "unit": "µg/mL"}, {"measurement": "MIC", "setting": "[12]; isolate 43, M. mucogenicum group, M. phocaicum", "value": 0.25, "unit": "µg/mL"}, {"measurement": "MIC", "setting": "[12]; isolate 44, M. mucogenicum group, M. phocaicum", "value": 0.5, "unit": "µg/mL"}, {"measurement": "MIC", "setting": "[12]; isolate 45, M. mucogenicum group, M. phocaicum", "value": 1, "unit": "µg/mL"}, {"measurement": "MIC", "setting": "[12]; isolate 46, M. mucogenicum group, M. phocaicum", "value": 1, "unit": "µg/mL"}, {"measurement": "MIC", "setting": "[12]; isolate 47, M. mucogenicum group, M. phocaicum", "value": 0.5, "unit": "µg/mL"}, {"measurement": "MIC", "setting": "[12]; isolate 48, M. mucogenicum group, M. phocaicum", "value": 1, "unit": "µg/mL"}, {"measurement": "MIC50", "setting": "[13]; read-out: MIC50", "value": 2, "unit": "µg/mL"}, {"measurement": "MIC90", "setting": "[13]; read-out: MIC90", "value": 8, "unit": "µg/mL"}, {"measurement": "MIC", "setting": "[14]; isolate 35, M. immunogenum group", "value": 8, "unit": "µg/mL"}, {"measurement": "MIC", "setting": "[14]; isolate 36, M. immunogenum group", "value": 4, "unit": "µg/mL"}, {"measurement": "MIC", "setting": "[14]; isolate 37, M. immunogenum group", "value": 16, "unit": "µg/mL"}, {"measurement": "MIC", "setting": "[14]; isolate 38, M. immunogenum group", "value": 16, "unit": "µg/mL"}]}
